Results on six compounds are retold here after US8017350B2, “Glimepiride- and insulin-induced glycosylphosphatidylinositol-specific phospholipase C regulation” (Sanofi-Aventis Deutschland GmbH, priority 2004, dated 2011).

One series in a line: stability of compound 3. It is filed as physicochemical.
Series [1] deals with trypanosomal GPI-PLC (T. brucei). To be noted: literature; cited from earlier work.
For series [2] the following is noted: cited from earlier work.
In series [3] the test system is pp59Lyn and Gce1 interaction with caveolin-1 in rat adipocytes. Kind of series: dissociation of signaling proteins from caveolin (caveolin-1 immunoprecipitates of hcDIGs). The series is classed as cell-based. The note with it: solubilized hcDIGs; FIG. 6. The procedure: Solubilized DIGs (see above, 5-20 μg protein) were precleared by incubation with protein A/G-Sepharose and subsequent centrifugation (10,000×g, 5 min). The supernatant was incubated with anti-caveolin-1 antibodies (1:1000) preadsorbed on protein A/G-Sepharose in 1 ml of 10 mM Tris/HCl (pH 7.4), 150 mM NaCl, 1% TX-100 for 1 h at 4° C. The immune complexes were washed twice with the same buffer and then twice with buffer lacking TX-100 and finally subjected to SDS-PAGE performed in the absence of β-mercaptoethanol. The recovery of immunoprecipitated caveolin was normalized by homologous immunoblotting with anti-caveolin antibodies of the same blot following stripping of the membrane.
Polypeptides separated by SDS-PAGE were transferred to polyvinylidene difluoride membranes using the semidry procedure as described in “Müller, G. et al., (2001) Mol. Cell. Biol. 21: 4553-4567”. Washed membranes were incubated with anti-caveolin-1 (1:2000), anti-pp59^Lyn (1:1250), anti-aP (1:500), anti-5′-Nuc (1:750) and anti-IRS-1 (1:2000) antibodies for 4 h at 15° C. Washed membranes were incubated with horseradish peroxidase-coupled secondary goat anti-mouse (1:2000) or goat anti-rabbit IgG (1:4000) antibodies. Labeled proteins were visualized by enhanced chemiluminescence.
FIG. 6: Effect of GPI-2350 on the glimepiride/insulin-induced dissociation of signaling proteins from caveolin. Isolated rat adipocytes were treated (5 min, 37° C.) without or with GPI-2350 (left panels, 50 μM; right panels, increasing conc.) and then incubated (120 min, 37° C.) in the absence or presence of insulin (10 nM) or glimepiride (20 μM). hcDIGs were prepared from the adipocytes and then solubilized. Caveolin-1 immunoprecipitates prepared from the solubilized hcDIGs were assayed for the presence of pp59^Lyn and Gce1 by immunoblotting and photoaffinity-labeling, respectively. […]

The next series has as its system isolated rat adipocytes. Kind of series: isoproterenol-induced lipolysis measured as release of NBD-FA. The series is classed as cell-based. The procedure: Electroporation was performed as described in “Müller, G. et al., (2000) Mol. Cell. Biol. 20: 4708-4723”. Lipolysis was determined as release of glycerol or fluorescent NBD-FA from prelabeled and isoproterenol-stimulated adipocytes as described in “Müller, G. et al., (2003) Biochimie 85: 1245-1256”. Gce1 was detected by photolabeling of solubilized plasma membranes or hc/lcDIGs (10-50 μg protein) with 8-N3—[^32P]cAMP and subsequent phosphorimaging as described in “Müller, G. et al., (1994) Biochemistry 33: 12149-12159”. 5′-Nuc, aP and AChE activities were measured according to “Eliakim, R. et al., (1990) Biochim. Biophys. Acta 1355: 293-302”. Protein was determined using the BCA protein determination kit from Pierce (Rockford, Ill.) and BSA as calibration standard. SDS-PAGE was performed using precast gels (Novex, San Diego, Calif.; 10% Bis-Tris resolving gel, morpholinopropanesulfonic acid-SDS running buffer). Lumiimages were evaluated on a LumiImager using LumiImager software (Roche Diagnostics). Phosphor- and fluorescence images were processed and quantified using the Storm 860 PhosphorImager system (Molecular Dynamics, Gelsenkirchen, Germany). Figures were constructed using the ADOBE PHOTOSHOP software (Adobe Systems, Mountain View, Calif.).
FIG. 9: Isolated rat adipocytes were labeled with 0.5 mM NBD-FA (60 min, 37° C.), washed and then incubated (5 min, 37° C.) in the absence (Panels B, D) or presence of GPI-2350 (50 μM; Panels A, C) prior to challenge with increasing concentrations of glimepiride (Panels A, B) or insulin (Panels C, D). After further incubation (120 min, 37° C.) without or with isoproterenol (1 μM) as indicated, total cell suspensions were extracted with chloroform/heptane/methanol/0.1 N HCl (3/3/2/1, by vol.). The organic phases were analyzed by thin layer chromatography (diethylether/petrolether/acetic acid 78/22/1, by vol.) and fluorescence imaging in parallel with NBD-FA as marker. A typical experiment with 2 independent labelings and incubations is shown repeated once with similar results. TAG, triacylglycerol.

Series [4] relates to GPI-proteins 5′-Nuc, Gce1 and aP in isolated rat adipocytes. Kind of series: localization of lipolytically cleaved and uncleaved GPI-proteins at hcDIGs, IcDIGs and total plasma membranes (TX-114 partitioning). To be noted: GPI-2350 50 μM, insulin 10 nM, glimepiride 20 μM; for 5′-Nuc amphiph IcDIGs / 5′-Nuc hydroph. IcDIGs / 5′-Nuc hydroph. hcDIGs / Gce1 amphiph IcDIGs / Gce1 hydroph. IcDIGs / Gce1 hydroph. hcDIGs / aP amphiph IcDIGs / aP hydroph. IcDIGs / aP hydroph. hcDIGs: amphiphilic version in hcDIGs of basal adipocytes set at 100; for 5′-Nuc hydroph. PM / Gce1 hydroph. PM / aP hydroph. PM: amphiphilic version in total plasma membranes of basal adipocytes set at 100; for 5′-Nuc amphiph hcDIGs / Gce1 amphiph hcDIGs / aP amphiph hcDIGs: basal set at 100. The series is classed as cell-based.

Like-named read-outs stand apart in the source and are kept apart here.

In the case of `CCCCCCCCCCCCP1(=O)OC2C(O)C(O)C(O)C(O)C2O1` (racemic) [GPI-2350, myo-inositol-1,2-cyclo-dodecylphosphonic acid], the “stability as dried amorphous solid” value in “stability of compound 3” (4° C.) is reported as “dried amorphous solid for years”. The stability in methanol result in the series “stability of compound 3” (methanol) is “stable in methanol for days”.
Regarding `CCCCCCCCCCCCP(=O)(O)O[C@@H]1[C@H](O)[C@H](O)[C@@H](O)[C@H](O)[C@H]1O[C@H]1O[C@H](CO)[C@@H](O)[C@H](O)[C@H]1N` [GMI-1-dodecylphosphonate], the inhibition in words entry in series [1] is recorded as “considerably more inhibitory than the corresponding hexyl derivative”.
Usually IC50 stands for the concentration that inhibits the measured activity by half. In the case of `CCC1=C(C)CN(C(=O)NCCc2ccc(S(=O)(=O)NC(=O)N[C@H]3CC[C@H](C)CC3)cc2)C1=O` [Glimepiride, glimepiride], in series [2] (human, in vivo), the “time of greatest blood glucose lowering effects after the dose” value was at most 4 h. Also, the “hypoglycaemia, patients” value in series [2] (receiving concomitant insulin for 6 months) is given as at most 50%. Also, in series [3], the “induced maximal losses of pp59Lyn and Gce1 from caveolin-1 immunoprecipitates” value is on record as 75-85%. Besides, the IC50 in the series on isolated rat adipocytes (Rattus norvegicus, Adipocyte, isoproterenol-induced adipocytes, FIG. 9, read-out: IC50 for reduction of NBD-FA release) stood at 3000 nM. Besides, in the series on isolated rat adipocytes (in the presence of 50 μM glimepiride (so in the source), Panels A, B), the “reduction of NBD-FA release in the presence of inhibitor” value is on record as “completely abrogated”. In addition, in series [4], the “5′-Nuc amphiph IcDIGs” value is 59 ± 9 arb. units, the “5′-Nuc hydroph. IcDIGs” value is on record as 9 ± 3 arb. units, the “5′-Nuc hydroph. hcDIGs” value worked out at 48 ± 10 arb. units and the “Gce1 amphiph IcDIGs” value is recorded as 79 ± 15 arb. units. Also, in series [4], the “Gce1 hydroph. IcDIGs” value stood at 12 ± 5 arb. units, the “Gce1 hydroph. hcDIGs” value is on record as 69 ± 9 arb. units, the “aP amphiph IcDIGs” value is 49 ± 8 arb. units and the “aP hydroph. IcDIGs” value stood at 10 ± 2 arb. units. For the same compound, in series [4], the “aP hydroph. hcDIGs” value was 88 ± 19 arb. units, the “5′-Nuc hydroph. PM” value stood at 19 ± 5 arb. units, the “Gce1 hydroph. PM” value turned out to be 40 ± 11 arb. units and the “aP hydroph. PM” value is reported as 54 ± 12 arb. units. For the same compound, in series [4], the “5′-Nuc amphiph hcDIGs” value was 35 ± 10 arb. units, the “Gce1 amphiph hcDIGs” value was found to be 25 ± 10 arb. units and the “aP amphiph hcDIGs” value amounted to 10 ± 3 arb. units.
As to `N[C@H]1[C@@H](O[C@@H]2[C@@H](O)[C@H](O)[C@@H](O)[C@H]3OP(=O)(O)O[C@H]32)O[C@H](CO)[C@@H](O)[C@@H]1O` [glucosamine (α1→6)-inositol-1,2-cyclic phosphate], the inhibition in words result in series [1] is on record as “better inhibitor than GMI-1-phosphate”.
On to `CCCCCCCCCCCCOP(=O)(O)OC1C(O)C(O)C(O)C(O)C1O` (stereo not shown) [myo-inositol-1-O-dodecylphosphate], for which the inhibition in words result in series [1] is recorded as “inhibit the trypanosomal GPI-PLC”.
Consider Insulin: Human recombinant insulin, for which, in series [3], the “induced maximal losses of pp59Lyn and Gce1 from caveolin-1 immunoprecipitates” value is on record as 35-45%. Moreover, the concentration for half-maximal inhibition (IC50) in the series with isolated rat adipocytes (absence of GPI-2350, read-out: apparent IC50 for inhibition of NBD-FA release) was determined as 100 nM. The IC50 in the series with isolated rat adipocytes (presence of GPI-2350 (50 μM), read-out: apparent IC50 for inhibition of NBD-FA release) stood at 300 nM. Moreover, in series [4], the “5′-Nuc amphiph IcDIGs” value stood at 28 ± 4 arb. units, the “5′-Nuc hydroph. IcDIGs” value is on record as 7 ± 2 arb. units, the “5′-Nuc hydroph. hcDIGs” value is on record as 34 ± 8 arb. units and the “Gce1 amphiph IcDIGs” value is 35 ± 9 arb. units. In addition, in series [4], the “Gce1 hydroph. IcDIGs” value was 19 ± 5 arb. units, the “Gce1 hydroph. hcDIGs” value came out at 58 ± 12 arb. units, the “aP amphiph IcDIGs” value is on record as 27 ± 5 arb. units and the “aP hydroph. IcDIGs” value came out at 4 ± 2 arb. units. Besides, in series [4], the “aP hydroph. hcDIGs” value was determined as 69 ± 8 arb. units, the “5′-Nuc hydroph. PM” value worked out at 14 ± 5 arb. units, the “Gce1 hydroph. PM” value is 29 ± 7 arb. units and the “aP hydroph. PM” value came to 31 ± 6 arb. units. Besides, in series [4], the “5′-Nuc amphiph hcDIGs” value was 81 ± 17 arb. units, the “Gce1 amphiph hcDIGs” value is listed as 64 ± 8 arb. units and the “aP amphiph hcDIGs” value is reported as 44 ± 7 arb. units.
